Experimental data taken from patent US11167007B2, “FOXM1 modulators and uses thereof” (City of Hope, priority 2016, dated 2021).

Assays:
β-catenin = test: Western blot of β-catenin in nuclear and cytoplasmic fractions of GT1-7 cells; assay type: cell-based, murine; conditions: nuclear fraction, FIG. 3D
Source text: Western Blot. Cell lysates was separated on a 6% SDS page gel and transferred to a nitrocellulose membrane. The membrane was blocked for one hour in 5% skim milk dissolved in TBS-T and probed with the following antibodies ([…]): FoxM1 (rabbit, GeneTex), AR: 441 (mouse, Santa Cruz Biotechnology), β-catenin (rabbit 9562, Cell Signaling Technology), p84 (mouse, GeneTex) and actin (mouse, Santa Cruz Biotechnology). Horse radish peroxidase linked secondary antibodies were used along with ECL reagents for visualization. Western blots were quantified using Quantity One analysis software (BioRad).
It has been previously reported that thiostrepton causes decreased levels of FOXM1. Hegde et al, Nat Chem, 3(9):725-31 (2011); Gartel, Front Oncol, 3:150 (2013). […] The nuclear association between FOXM1 and β-catenin increases the transcriptional activity of both factors. Zhang et al, Cancer Cell, 20(4):427-42 (2011). β-catenin is a key AR coactivator in a variety of cells. Yang, J Biol Chem, 277(13):11336-44 (2002); Truica et al, Cancer Res, 60(17):4709-13 (2000). The inventors believed that thiostrepton could inhibit AR activity by limiting access to nuclear β-catenin via FOXM1 depletion. […] As expected, control actin protein was observed primarily in cytoplasmic fraction.

AR = target: T1, AR (Rattus norvegicus, UniProt P15207); test: Androgen-responsive luciferase reporter assay in L6 skeletal muscle cells; assay type: cell-based; conditions: FIG. 2B
T1 construct: endogenous in cells; host or cells: L6 myoblasts
T1 sequence (P15207 1-902): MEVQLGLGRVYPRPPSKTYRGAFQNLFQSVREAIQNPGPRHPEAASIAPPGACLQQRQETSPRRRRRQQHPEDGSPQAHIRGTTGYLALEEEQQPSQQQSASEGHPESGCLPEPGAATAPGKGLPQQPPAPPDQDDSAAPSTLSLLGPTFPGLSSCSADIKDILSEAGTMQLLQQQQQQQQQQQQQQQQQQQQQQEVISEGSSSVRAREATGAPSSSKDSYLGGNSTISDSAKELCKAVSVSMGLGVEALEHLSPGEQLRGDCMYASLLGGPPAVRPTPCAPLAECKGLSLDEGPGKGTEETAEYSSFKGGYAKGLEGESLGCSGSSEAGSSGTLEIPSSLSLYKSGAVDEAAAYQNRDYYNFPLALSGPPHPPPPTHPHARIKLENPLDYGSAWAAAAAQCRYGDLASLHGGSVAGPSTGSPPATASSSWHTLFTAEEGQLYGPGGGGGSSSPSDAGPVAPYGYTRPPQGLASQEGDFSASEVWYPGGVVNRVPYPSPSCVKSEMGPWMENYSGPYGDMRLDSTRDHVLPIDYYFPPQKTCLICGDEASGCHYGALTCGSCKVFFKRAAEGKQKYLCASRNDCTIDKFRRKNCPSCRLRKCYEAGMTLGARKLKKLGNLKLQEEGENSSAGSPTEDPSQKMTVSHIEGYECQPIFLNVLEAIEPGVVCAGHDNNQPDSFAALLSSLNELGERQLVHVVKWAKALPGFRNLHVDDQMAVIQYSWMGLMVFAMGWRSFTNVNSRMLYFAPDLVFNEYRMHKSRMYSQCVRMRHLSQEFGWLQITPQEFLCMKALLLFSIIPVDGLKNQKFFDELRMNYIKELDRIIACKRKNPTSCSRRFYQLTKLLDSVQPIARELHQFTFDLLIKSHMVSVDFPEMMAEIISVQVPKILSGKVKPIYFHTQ
Source text: Luciferase Reporter Assay. Cells were transfected using Lipofectamine Plus (Invitrogen) with a normalization plasmid (pRL-SV40, Promega) and an androgen responsive plasmid (MMTV-luciferase or PSA-luciferase) as described in Jones et al, ACS Chem Biol, 3(7):412-8 (2008), and, where indicated, with an shRNA plasmid targeting FOXM1 (adapted for mouse FOXM1 sequence targeting) a scrambled control shRNA plasmid, or ARQ24 or ARQ65 plasmids. Christensen et al, PLoS One, 8(1):e54556 (2013). The following day, cells and drugs were distributed to 96-well plates. 24 hours later, luciferase activity was assessed by a dual luciferase assay kit (Promega) on the Tecan plate reader. Samples were run in quadruplicates and a Student's t test was performed to determine significance, where p<0.05 was considered significant.
The ability of thiostrepton to inhibit AR activity in additional neuronal cells, including ReNcell CX cells PC12 cells, and in rat L6 skeletal muscle cells was examined (FIG. 2B). Donato et al, BMC Neurosci, 8:36 (2007); Yaffe, Proc Natl Acad Sci USA, 61(2):477-83 (1968).

[1] = test system: AR activity in muscle or SV; test: Weights of levator ani muscle and seminal vesicles at end of study; assay type: in vivo, rat; conditions: rats, compared to controls
Protocol: Animals and Drugs. This study was carried out in strict accordance with the recommendations in the Guide for the Care and Use of Laboratory Animals of the National Institutes of Health. All experiments were performed under the IUCAC approval of City of Hope. Animals were purchased from Jackson Laboratory (Bar Harbor, Main). For the pilot pharmacokinetic experiment, nine male Sprague Dawley rats (n=3) were administered 1, 10, or 100 mg/kg intraperitoneal injections thrice per week for four weeks. One hour following the final dose, blood and spinal fluid were collected and analyzed by mass spectrometry. For the efficacy experiment, rats were divided into 3 groups (n=7) as follows: intact, castrated, and thiostrepton. […] Following a treatment period of 7 days, rats were euthanized and organs harvested, weighed and processed for quantitative RT-PCR.
Androgens are known to control the growth and maintenance of the skeletal muscle and seminal vesicles. […] In order to investigate the impact of thiostrepton on these tissues, their weights at the end of the study were assessed. […] Because an equivalent androgen-dependent change in weight cannot be tested in motor neurons, the levels of tissue-selective androgen regulate genes, as a marker of AR activity, were assessed. […] RNA was isolated from spinal cord and LA muscle tissue and transcript levels were measured by RT-qPCR (FIG. 5F, FIG. 5H). […]

## C=C(NC(=O)C(=C)NC(=O)c1csc(C2=N[C@@H]3c4csc(n4)[C@H]4NC(=O)c5csc(n5)[C@H]([C@](C)(O)[C@@H](C)O)NC(=O)[C@H]5CSC(=N5)/C(=C/C)NC(=O)[C@H]([C@@H](C)O)NC(=O)c5csc(n5)[C@]3(CC2)NC(=O)[C@H](C)NC(=O)C(=C)NC(=O)[C@H](C)NC(=O)[C@H]([C@@H](C)CC)N[C@@H]2C=Cc3c([C@H](C)O)cc(nc3[C@H]2O)C(=O)O[C@@H]4C)n1)C(N)=O [thiostrepton]
β-catenin
  levels of nuclear β-catenin: lower levels
AR
  inhibition of AR activity (luciferase): not muscle cells
[1]
  levator ani (LA) muscle weight: did not change
  seminal vesicles (SV) weight: did not change
